Experimental data from ChEMBL document CHEMBL1156734, “Discovery of 1,3-disubstituted-1H-pyrrole derivatives as potent melanin-concentrating hormone receptor 1 (MCH-R1) antagonists” (Bioorg Med Chem Lett, 2008).

Assays:
[1] = molecular target: T1, Melanin-concentrating hormone receptor 1 (Homo sapiens, UniProt Q99705); test: Displacement of [125I]MCH from human MCHR1 expressed in HEK293 cells; type: cell-based
[2] = molecular target: T1, Melanin-concentrating hormone receptor 1; test: Antagonist activity at human MCHR1 expressed in HEK293 cells assessed as [35S]GTPgammaS accumulation; type: functional, cell-based
[3] = Fraction unbound in human plasma; type: ADME, cell-free
[4] = test system: Liver microsomes; test: Metabolic stability in human liver microsomes; type: ADME, Microsome
[5] = test system: Mus musculus; test: Intrinsic clearance in C57BL mouse at 20 uM/kg, iv; type: ADME, organism-based; conditions: in vivo

T1 sequence (Q99705 whole entry): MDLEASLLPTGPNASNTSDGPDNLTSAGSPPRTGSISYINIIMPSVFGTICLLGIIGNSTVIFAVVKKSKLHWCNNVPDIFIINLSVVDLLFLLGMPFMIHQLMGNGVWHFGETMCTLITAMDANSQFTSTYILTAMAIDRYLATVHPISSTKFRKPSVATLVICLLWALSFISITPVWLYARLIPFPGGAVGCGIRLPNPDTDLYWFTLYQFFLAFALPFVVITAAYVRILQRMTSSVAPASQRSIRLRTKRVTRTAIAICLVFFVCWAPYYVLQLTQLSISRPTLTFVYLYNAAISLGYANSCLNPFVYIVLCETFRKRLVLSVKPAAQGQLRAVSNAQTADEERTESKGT

Compound | IC50 [1] [µM] | IC50 [2] [µM] | other results
O=C(COc1cccc(Cl)c1)NCC1CCN(Cc2ccn(-c3ccc(C(F)(F)F)cn3)c2)CC1 | 0.313 |  | 
O=C(COc1cccc(Cl)c1)NCC1CCCN(Cc2ccn(-c3ccc(C(F)(F)F)cn3)c2)C1 (stereo not given) | 0.303 |  | 
O=C(COc1ccc(F)c(F)c1)NCC1CN(Cc2ccn(-c3ccc(C(F)(F)F)cc3)c2)CCO1 (stereo not given) | 0.269 |  | 
Fc1ccc(-c2ncc(C3CCN(Cc4ccn(-c5ccc(C(F)(F)F)cc5)c4)CC3)[nH]2)cc1 | 0.113 |  | 
O=C(COc1cccc(Cl)c1)NC1CCN(Cc2cccc(-n3cccc3)c2)CC1 | 0.297 |  | 
O=C(COc1cccc(Cl)c1)NC1CCN(Cc2cc3c(cc2Cl)OCO3)CC1 | 0.082 | 0.505 | 
O=C(COc1cccc(Cl)c1)NC1CCN(Cc2ccc3[nH]ccc3c2)CC1 | 2.34 |  | 
COc1ccc(-n2ccc(CN3CCC(NC(=O)COc4cccc(Cl)c4)CC3)c2)cc1 | 0.1 | 0.09 | 
O=C(COc1cccc(Cl)c1)NC1CCN(Cc2ccc(-c3ccc(C(F)(F)F)cn3)o2)CC1 | 0.927 |  | 
O=C(COc1cccc(Cl)c1)NC1CCN(Cc2ccn(-c3ccc(C(F)(F)F)cc3)c2)CC1 |  |  | fraction unbound [3]: 0.012; clearance [4]: 38 µL/min/mg; CL [5]: 41 mL/min/kg
O=C(COc1cccc(Cl)c1)NC1CCN(Cc2ccn(C3CCCC3)c2)CC1 | > 33 |  | 
Cc1cc(CN2CCC(NC(=O)COc3cccc(Cl)c3)CC2)c(C)n1-c1ccccc1 | 9.65 |  | 
O=C(COc1cccc(Cl)c1)NC1CCN(Cc2ccn(-c3ccccc3)c2)CC1 | 0.71 |  | 
O=C(COc1cccc(Cl)c1)NC1CCN(Cc2cn(-c3ccc(C(F)(F)F)cc3)cn2)CC1 | 2.14 |  | 
O=C(COc1cccc(Cl)c1)N[C@H]1[C@@H]2CN(Cc3ccn(-c4ccc(C(F)(F)F)cc4)c3)C[C@@H]21 | 0.111 |  | 
CN(C(=O)COc1cccc(Cl)c1)C1CCN(Cc2ccn(-c3ccc(C(F)(F)F)cc3)c2)CC1 | 0.109 |  | 
FC(F)(F)c1ccc(-n2ccc(CN3CCC(NCCOc4cccc(Cl)c4)CC3)c2)cc1 | 0.636 |  | 
O=C(COc1cccc(Cl)c1)NC1CCN(Cc2csc(-c3ccc(Cl)cc3)n2)CC1 | 0.347 |  | 
O=C(COc1cccc(Cl)c1)NC1CCCN(Cc2ccn(-c3ccc(C(F)(F)F)cn3)c2)C1 (stereo not given) | 3.05 |  | 
O=C(COc1ccc(F)c(F)c1)N[C@H]1CC[C@H](Nc2ccn(-c3ccc(C(F)(F)F)cc3)c2)C1 | 2.26 |  | 
O=C(COc1cccc(Cl)c1)N1CCC(Nc2ccn(-c3ccc(C(F)(F)F)cn3)c2)CC1 | 1.25 |  | 
Cc1cccc(OCC(=O)NCC2CN(Cc3ccn(-c4ccc(C(C)(C)C)cn4)c3)C2)c1 | 0.169 |  | 
O=C(COc1cccc(Cl)c1)NC1CCN(Cc2ccn(-c3ccon3)c2)CC1 | 1.5 |  | 
O=C(NC1CCN(Cc2ccc(Cl)c(Cl)c2)CC1)c1csc([N+](=O)[O-])c1 | 0.092 | 0.804 | 
O=C(COc1cccc(Cl)c1)NC1CCN(Cc2ccc3c(c2)OCCO3)CC1 | 0.903 |  | 
O=C(COc1cccc(Cl)c1)NC1CCN(Cc2ccc(-c3ccccn3)cc2)CC1 | 0.12 |  | 
O=C(COc1ccc(F)c(F)c1)N[C@H]1CC[C@@H](Nc2ccn(-c3ccc(C(F)(F)F)cc3)c2)CC1 | 0.104 |  | 

More lines, in order of falling IC50 [1], values ahead:

IC50 [1] [µM] | IC50 [2] [µM] | Compound | other results
0.078 | 0.103 | O=C(COc1cccc(Cl)c1)NC1CCN(Cc2ccc(-c3ccc(OC(F)(F)F)cc3)o2)CC1 | 
0.066 |  | Fc1ccc(-c2cc(C3CCN(Cc4ccn(-c5ccc(C(F)(F)F)cc5)c4)CC3)on2)cc1 | 
0.052 | 0.145 | N#Cc1ccc(-n2ccc(CN3CCC(NC(=O)COc4cccc(Cl)c4)CC3)c2)cc1 | 
0.048 | 0.092 | O=C(COc1cccc(Cl)c1)NC1CCN(Cc2ccn(-c3ccc(C(F)(F)F)cn3)c2)CC1 | 
0.043 | 0.117 | CC(c1ccn(-c2ccc(C(F)(F)F)cc2)c1)N1CCC(NC(=O)COc2cccc(Cl)c2)CC1 (stereo not given) | 
0.042 | 0.073 | O=C(COc1cccc(Cl)c1)NC1CN(Cc2ccn(-c3ccc(C(F)(F)F)cc3)c2)C1 | 
0.041 | 0.104 | O=C(COc1cccc(Cl)c1)NC1CCN(Cc2ccc3ccccc3c2)CC1 | 
0.037 | 0.058 | Fc1ccc(-c2cc(C3CCN(Cc4ccn(-c5ccc(C(F)(F)F)cc5)c4)CC3)n[nH]2)cc1 | 
0.031 | 0.015 | O=C(COc1cccc(Cl)c1)NC1CCN(Cc2ccn(-c3ccc(OC(F)(F)F)cc3)c2)CC1 | fraction unbound [3]: 0.032; clearance [4]: 21 µL/min/mg; CL [5]: 34 mL/min/kg
0.029 | 0.048 | O=C(COc1ccc(F)c(F)c1)NC1CCN(Cc2ccn(-c3ccc(C(F)(F)F)cc3)c2)C1 (stereo not given) | 
0.026 | 0.071 | Cc1c(-c2ccccc2)[nH]c(=O)n1C1CCN(Cc2ccn(-c3ccc(C(F)(F)F)cc3)c2)CC1 | 
0.025 | 0.067 | Fc1ccc(-c2cc(C3CCN(Cc4ccn(-c5ccc(C(F)(F)F)cc5)c4)CC3)no2)cc1 | 
0.02 | 0.122 | Fc1ccc(-c2c[nH]c(C3CCN(Cc4ccn(-c5ccc(C(F)(F)F)cc5)c4)CC3)n2)cc1 | 
